Drawing on patent US20220009920A1 (GB005, Inc., priority 2020, published 2022), this text covers inhibition for three compounds.

Common to all, as to assay: Large panel kinase profiling
Assay type in all cases: biochemical
What all share (settings): 1 μM test article, 1 mM ATP

The target in one test is T1, MAP3K9 (Homo sapiens, UniProt P80192).
T1 construct: AssayQuant Technologies, Inc. (service provider)
An outline of the steps: (§1)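 Fluorescence intensity (Ex 360 nm, Em 485 nm) was monitored continuously, once per minute, in PhosphoSens CSox-Sensor kinase reactions held at 30° C. Compound was present at 1 μM and ATP at 1 mM.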

The target of a further test is PLK1 (Homo sapiens, UniProt P53350). An outline of the steps:
as §1

For another test, the target named is T2, GRK7 (Homo sapiens, UniProt Q8WTQ7).
T2 construct: AssayQuant Technologies, Inc. (service provider)
T2 sequence (Q8WTQ7 1-553): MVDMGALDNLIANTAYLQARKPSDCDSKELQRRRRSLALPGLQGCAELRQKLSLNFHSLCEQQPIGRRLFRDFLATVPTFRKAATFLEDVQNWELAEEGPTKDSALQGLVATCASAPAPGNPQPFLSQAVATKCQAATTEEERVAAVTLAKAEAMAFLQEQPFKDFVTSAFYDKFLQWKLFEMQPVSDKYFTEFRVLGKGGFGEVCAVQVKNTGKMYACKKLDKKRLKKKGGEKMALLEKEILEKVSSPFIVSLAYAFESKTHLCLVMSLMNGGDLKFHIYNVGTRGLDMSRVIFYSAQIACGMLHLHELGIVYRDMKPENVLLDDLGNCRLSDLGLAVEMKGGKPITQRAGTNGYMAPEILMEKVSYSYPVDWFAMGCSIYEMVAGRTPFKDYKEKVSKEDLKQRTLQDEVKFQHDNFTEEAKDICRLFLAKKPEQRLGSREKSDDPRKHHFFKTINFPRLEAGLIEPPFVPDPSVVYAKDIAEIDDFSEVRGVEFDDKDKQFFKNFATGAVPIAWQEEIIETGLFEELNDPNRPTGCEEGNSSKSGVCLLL
A digest of the protocol:
as §1

A further test has as its target T3, RPS6KA6/RSK4 (Homo sapiens, UniProt Q9UK32).
T3 construct: AssayQuant Technologies, Inc. (contract assay)
An outline of the steps:
as §1

The target of another test is T4, MASTL (Homo sapiens, UniProt Q96GX5).
T4 construct: AssayQuant Technologies, Inc. (assay service)
T4 sequence (Q96GX5 1-879): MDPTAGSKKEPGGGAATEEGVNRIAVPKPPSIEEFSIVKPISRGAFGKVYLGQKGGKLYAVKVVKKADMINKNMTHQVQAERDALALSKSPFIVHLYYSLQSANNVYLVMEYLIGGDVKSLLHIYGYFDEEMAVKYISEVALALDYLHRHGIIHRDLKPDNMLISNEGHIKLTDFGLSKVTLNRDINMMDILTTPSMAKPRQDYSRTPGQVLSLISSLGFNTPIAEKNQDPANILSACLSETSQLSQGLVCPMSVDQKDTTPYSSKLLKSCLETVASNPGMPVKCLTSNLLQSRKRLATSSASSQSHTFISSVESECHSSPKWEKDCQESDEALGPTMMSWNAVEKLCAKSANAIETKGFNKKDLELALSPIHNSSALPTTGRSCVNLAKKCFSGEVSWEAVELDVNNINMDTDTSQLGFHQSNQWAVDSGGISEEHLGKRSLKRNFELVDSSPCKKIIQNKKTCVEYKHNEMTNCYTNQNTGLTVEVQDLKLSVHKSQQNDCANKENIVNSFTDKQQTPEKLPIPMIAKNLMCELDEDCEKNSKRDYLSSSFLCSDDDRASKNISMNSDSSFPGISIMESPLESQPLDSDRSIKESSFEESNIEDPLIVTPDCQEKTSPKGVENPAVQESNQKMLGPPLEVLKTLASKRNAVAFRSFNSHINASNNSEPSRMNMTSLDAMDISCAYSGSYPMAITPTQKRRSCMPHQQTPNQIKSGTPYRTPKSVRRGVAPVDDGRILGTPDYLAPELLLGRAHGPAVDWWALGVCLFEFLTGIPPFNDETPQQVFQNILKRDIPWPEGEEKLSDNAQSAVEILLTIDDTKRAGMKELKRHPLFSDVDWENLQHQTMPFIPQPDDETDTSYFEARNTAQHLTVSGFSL
A digest of the protocol: as §1

For a further test, the target named is RIPK2 (Homo sapiens, UniProt O43353). A digest of the protocol:
as §1

The target in another test is PRKCQ/PKCQ (Homo sapiens, UniProt Q04759). An outline of the steps: as §1
The target of the next test is T5, BMX (Homo sapiens, UniProt P51813).
T5 sequence (P51813 1-675): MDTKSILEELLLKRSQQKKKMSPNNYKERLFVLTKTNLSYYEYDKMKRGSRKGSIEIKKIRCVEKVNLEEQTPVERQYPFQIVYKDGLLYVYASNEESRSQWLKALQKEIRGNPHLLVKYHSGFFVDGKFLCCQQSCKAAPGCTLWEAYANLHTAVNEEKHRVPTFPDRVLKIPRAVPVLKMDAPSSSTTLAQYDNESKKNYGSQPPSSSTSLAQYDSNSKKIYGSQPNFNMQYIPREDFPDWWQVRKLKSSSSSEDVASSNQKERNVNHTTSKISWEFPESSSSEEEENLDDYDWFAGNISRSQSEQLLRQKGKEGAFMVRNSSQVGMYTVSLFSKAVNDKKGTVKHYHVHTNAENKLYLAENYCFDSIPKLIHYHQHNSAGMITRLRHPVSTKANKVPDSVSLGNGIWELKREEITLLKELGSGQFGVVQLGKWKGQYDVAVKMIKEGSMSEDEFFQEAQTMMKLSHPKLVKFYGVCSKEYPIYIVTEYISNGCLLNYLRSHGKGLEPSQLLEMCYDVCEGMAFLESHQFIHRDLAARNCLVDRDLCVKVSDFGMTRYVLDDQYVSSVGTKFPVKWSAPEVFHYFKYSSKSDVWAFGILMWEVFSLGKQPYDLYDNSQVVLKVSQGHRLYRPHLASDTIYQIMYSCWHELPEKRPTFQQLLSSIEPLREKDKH
A digest of the protocol:
as §1

Sequence of PLK1 (P53350 whole entry, species assumed): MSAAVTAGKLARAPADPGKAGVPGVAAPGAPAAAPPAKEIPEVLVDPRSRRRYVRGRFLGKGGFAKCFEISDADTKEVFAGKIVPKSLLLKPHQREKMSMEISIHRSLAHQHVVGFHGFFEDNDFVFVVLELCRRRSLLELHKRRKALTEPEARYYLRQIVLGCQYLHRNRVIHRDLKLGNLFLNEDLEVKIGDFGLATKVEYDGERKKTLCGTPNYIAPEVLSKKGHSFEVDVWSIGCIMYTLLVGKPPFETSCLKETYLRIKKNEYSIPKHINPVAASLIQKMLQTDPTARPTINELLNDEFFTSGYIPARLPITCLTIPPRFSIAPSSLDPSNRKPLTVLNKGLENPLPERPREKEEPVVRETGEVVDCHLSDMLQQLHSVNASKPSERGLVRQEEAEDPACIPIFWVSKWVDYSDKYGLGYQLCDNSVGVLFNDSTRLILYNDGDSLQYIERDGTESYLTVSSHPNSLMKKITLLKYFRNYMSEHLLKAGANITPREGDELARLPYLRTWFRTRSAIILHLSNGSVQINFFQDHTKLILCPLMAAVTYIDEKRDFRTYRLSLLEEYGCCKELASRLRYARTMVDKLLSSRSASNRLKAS
T1 sequence (P80192 whole entry, species assumed): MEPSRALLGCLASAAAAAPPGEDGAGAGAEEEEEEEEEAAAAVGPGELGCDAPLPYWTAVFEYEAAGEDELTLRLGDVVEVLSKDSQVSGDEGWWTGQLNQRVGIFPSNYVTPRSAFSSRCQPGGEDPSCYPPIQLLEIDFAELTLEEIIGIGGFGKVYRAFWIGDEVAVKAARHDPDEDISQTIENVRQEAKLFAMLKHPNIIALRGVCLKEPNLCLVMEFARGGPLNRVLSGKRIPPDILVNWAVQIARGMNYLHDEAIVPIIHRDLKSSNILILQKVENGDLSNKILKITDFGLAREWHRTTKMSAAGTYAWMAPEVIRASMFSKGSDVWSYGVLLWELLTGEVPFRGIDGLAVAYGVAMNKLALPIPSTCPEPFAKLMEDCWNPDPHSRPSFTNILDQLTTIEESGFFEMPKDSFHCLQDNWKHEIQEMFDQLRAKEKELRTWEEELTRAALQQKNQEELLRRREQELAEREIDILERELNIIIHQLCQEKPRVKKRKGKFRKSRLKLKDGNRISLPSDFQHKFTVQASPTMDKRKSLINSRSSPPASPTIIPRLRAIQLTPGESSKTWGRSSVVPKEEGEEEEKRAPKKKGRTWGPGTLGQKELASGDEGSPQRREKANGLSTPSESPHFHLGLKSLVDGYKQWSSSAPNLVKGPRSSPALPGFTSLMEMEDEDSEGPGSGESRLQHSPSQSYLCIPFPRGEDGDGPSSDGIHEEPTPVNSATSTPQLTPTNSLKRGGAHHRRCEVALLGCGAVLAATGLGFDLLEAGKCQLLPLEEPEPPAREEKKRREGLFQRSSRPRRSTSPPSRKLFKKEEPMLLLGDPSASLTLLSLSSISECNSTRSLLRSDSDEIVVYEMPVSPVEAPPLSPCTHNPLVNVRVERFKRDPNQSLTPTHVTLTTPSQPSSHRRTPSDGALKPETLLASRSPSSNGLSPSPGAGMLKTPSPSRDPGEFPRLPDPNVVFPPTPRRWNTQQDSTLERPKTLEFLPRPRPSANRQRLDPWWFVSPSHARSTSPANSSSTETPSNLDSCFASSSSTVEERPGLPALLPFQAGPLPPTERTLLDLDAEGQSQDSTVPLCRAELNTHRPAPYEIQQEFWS
Sequence of RIPK2 (O43353 whole entry, species assumed): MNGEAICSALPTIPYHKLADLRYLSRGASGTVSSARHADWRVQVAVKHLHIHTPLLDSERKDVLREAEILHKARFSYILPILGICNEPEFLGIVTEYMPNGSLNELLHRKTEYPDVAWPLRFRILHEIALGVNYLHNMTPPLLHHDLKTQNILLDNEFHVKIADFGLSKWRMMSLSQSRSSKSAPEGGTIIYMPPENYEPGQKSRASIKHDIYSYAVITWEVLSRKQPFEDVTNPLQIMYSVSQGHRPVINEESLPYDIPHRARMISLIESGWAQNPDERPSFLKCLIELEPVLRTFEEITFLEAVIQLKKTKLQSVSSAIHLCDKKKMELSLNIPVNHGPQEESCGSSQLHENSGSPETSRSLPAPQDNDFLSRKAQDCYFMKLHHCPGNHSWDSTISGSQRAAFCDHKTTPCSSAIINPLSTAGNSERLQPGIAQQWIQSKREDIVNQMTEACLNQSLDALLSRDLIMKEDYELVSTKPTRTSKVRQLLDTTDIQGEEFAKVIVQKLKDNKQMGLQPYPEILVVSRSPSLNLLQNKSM
T3 sequence (Q9UK32 whole entry): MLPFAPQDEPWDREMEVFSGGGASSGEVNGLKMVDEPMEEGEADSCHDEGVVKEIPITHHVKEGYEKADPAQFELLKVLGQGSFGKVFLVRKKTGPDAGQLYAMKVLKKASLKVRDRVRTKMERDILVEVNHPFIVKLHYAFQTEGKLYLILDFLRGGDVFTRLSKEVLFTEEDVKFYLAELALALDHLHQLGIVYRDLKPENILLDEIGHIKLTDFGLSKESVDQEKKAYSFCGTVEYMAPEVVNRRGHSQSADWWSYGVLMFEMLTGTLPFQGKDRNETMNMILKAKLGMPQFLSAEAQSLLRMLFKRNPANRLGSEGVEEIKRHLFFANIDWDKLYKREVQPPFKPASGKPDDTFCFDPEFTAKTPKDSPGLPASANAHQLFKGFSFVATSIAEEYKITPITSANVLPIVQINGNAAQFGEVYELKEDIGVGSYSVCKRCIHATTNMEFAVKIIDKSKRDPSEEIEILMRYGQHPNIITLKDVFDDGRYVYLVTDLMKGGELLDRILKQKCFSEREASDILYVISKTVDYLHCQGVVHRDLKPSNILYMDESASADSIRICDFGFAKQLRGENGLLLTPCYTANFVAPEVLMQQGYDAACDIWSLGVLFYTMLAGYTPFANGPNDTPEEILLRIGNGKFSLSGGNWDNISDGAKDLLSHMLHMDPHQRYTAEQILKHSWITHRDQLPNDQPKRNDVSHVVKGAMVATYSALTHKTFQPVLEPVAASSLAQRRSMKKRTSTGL
Sequence of PRKCQ/PKCQ (Q04759 whole entry): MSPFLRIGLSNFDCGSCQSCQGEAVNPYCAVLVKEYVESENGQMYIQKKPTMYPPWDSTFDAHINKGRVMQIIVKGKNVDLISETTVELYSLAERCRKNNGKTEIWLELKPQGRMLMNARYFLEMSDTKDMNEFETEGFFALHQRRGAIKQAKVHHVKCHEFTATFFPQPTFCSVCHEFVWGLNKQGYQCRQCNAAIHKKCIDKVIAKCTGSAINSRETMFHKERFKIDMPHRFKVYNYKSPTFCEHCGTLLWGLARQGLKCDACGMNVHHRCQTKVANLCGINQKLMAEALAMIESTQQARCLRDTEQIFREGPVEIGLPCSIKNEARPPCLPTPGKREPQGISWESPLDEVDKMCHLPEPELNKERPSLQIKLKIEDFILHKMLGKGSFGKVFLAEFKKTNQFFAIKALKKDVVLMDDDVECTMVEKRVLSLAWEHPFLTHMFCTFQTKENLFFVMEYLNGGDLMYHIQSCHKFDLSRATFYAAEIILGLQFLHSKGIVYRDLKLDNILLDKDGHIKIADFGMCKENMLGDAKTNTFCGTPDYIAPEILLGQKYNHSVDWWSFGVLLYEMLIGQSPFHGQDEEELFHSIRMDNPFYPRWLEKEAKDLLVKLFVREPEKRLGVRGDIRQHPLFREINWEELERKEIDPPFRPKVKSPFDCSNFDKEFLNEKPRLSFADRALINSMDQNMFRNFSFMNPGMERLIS

In general, inhibition refers to the relative decrease from the control value, in per cent. In the case of `C=CC(=O)N1CCCC(c2c(F)cc(C(N)=O)c3[nH]c4c(c23)CCCCC4)C1` (single isomer, unassigned) [Compound 5-6], the inhibition at 1 µM at MAP3K9 was -0.9%; against PLK1, -6.3%; at GRK7, 1.3%; at RPS6KA6/RSK4 it was -5.8%; on MASTL, 2.2%; against RIPK2, 7.1%. The values for the inhibition at 1 µM against PRKCQ/PKCQ and against BMX were -3.7% and 42%, respectively.
As for `C=CC(=O)N1CCC[C@@H](c2c(F)cc(C(N)=O)c3[nH]c4c(c23)CC2(CC4)CC2)C1` [Compound 6-2, (S)-5-(1-acryloylpiperidin-3-yl)-6-fluoro-1,2,4,9-tetrahydrospiro[carbazole-3,1′-cyclopropane]-8-carboxamide], the inhibition at 1 µM was 28.8% on MAP3K9; -4.3% on PLK1; 10.9% against GRK7; -14.8% against RPS6KA6/RSK4; -9% against MASTL; -31.3% on RIPK2. The inhibition at 1 µM against PRKCQ/PKCQ came out at 0.7%; against BMX, 86%.
Turning to `C=CC(=O)N1CCC[C@@H](c2c(F)cc(C(N)=O)c3[nH]c4c(c23)CCC4)C1` [Compound 10-2, (S)-8-(1-acryloylpiperidin-3-yl)-7-fluoro-1,2,3,4-tetrahydrocyclo-penta[b]indole-5-carboxamide], the inhibition at 1 µM was 12.3% against MAP3K9; 13.8% on PLK1; -33% against GRK7; 0.3% at RPS6KA6/RSK4; -10.2% on MASTL; -45.4% against RIPK2. Besides, the inhibition at 1 µM against PRKCQ/PKCQ is -72.5%; against BMX, 65.2%.
